The record followed here is article PMC3674748, “High-level expression and characterization of a chimeric lipase from Rhizopus oryzae for biodiesel production” (Biotechnology for Biofuels, 2013).

For one assay, the target named is T1, r28ROL (Rhizopus arrhizus, UniProt P61872).
T1 construct: Pichia pastoris GS115, secreted, purified; proROL without signal peptide cleaved Kex2-like; about 37 kDa on SDS-PAGE
T1 sequence (P61872 96-392): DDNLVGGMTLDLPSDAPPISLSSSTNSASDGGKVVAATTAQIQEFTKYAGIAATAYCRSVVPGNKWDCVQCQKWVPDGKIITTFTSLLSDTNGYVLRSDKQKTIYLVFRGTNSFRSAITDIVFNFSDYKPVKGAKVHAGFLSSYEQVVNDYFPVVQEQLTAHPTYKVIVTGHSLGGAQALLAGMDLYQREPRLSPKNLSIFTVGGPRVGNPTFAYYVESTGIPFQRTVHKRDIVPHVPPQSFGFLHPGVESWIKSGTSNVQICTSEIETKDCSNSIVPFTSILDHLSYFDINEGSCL
The assay can be described thus: interfacial kinetics, p-nitrophenol release from emulsified pNPP. The conditions noted are these: heterogeneous (emulsion) medium; free purified enzyme; value not given. The class given is biochemical.

A further assay concerns the target T2, mROL (Rhizopus arrhizus, UniProt P61872).
T2 sequence (P61872 124-392): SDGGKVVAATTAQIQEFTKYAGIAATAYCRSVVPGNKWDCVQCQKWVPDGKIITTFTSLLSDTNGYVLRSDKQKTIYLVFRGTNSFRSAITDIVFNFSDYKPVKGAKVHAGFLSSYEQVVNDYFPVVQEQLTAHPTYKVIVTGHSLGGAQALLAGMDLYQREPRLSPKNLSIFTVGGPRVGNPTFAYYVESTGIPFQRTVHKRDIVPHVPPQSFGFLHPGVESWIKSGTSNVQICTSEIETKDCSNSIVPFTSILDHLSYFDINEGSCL
The experiment in a line: residual activity after heat treatment, pNPP assay. It counts as biochemical. The settings on record: turnover only; 1 h pre-incubation at 40 °C.

With `CCCCCCCCCCCCCCCC(=O)Oc1ccc([N+](=O)[O-])cc1` [p-nitrophenyl palmitate], on r28ROL, the “Km*” value is reported as “The kinetic parameters were determined using p-nitrophenyl palmitate (pNPP) as substrate”. Moreover, the “residual activity after heat treatment, pNPP assay” value at mROL is given as “thermostability of the mature R. oryzae lipase by P. pastoris in this study”.
